The nature of experiment [1]: The opioid receptor affinity(Ki) was evaluated by competition with [3H]-DPDPE (delta 1) on guinea pig brain membranes.
The nature of experiment [2]: The opioid receptor affinity(Ki) was evaluated by competition with [3H]DSLET (delta 2) on guinea pig brain membranes.

The values that follow come from BindingDB's records for doi:10.1021/jm00003a002 (University of Minnesota, 1995).

What is called Ki is a dissociation constant, usually derived from enzyme kinetics or from competition with a known ligand. Higher therefore signals weaker binding.

`O=C(O)C[C@@H](NC(=O)c1cccc2c3c([nH]c12)[C@@H]1Oc2c(O)ccc4c2C12CCN(CC1CC1)C(C4)[C@]2(O)C3)C(=O)O` (stereo partly drawn) [2-[22-cyclopropylmethyl-2,16-dihydroxy-(2S,13R)-14-oxa-11,22-diazaheptacyclo[13.9.1.01,13.02,21.04,12.05,10.019,25]pentacosa-4(12),5(10),6,8,15(25),16,18-heptaen-9-ylcarboxamido]-(2R)-butanedioic acid]: the figures for the Ki in experiment [1] and in experiment [2] were 0.14 nM and 0.41 nM, respectively.
Take `N=C(N)NCCC[C@@H](NC(=O)c1cccc2c3c([nH]c12)[C@@H]1Oc2c(O)ccc4c2C12CCN(CC1CC1)C(C4)[C@]2(O)C3)C(=O)O` (stereo partly drawn) [5-amino(imino)methylamino-2-[22-cyclopropylmethyl-2,16-dihydroxy-(2S,13R)-14-oxa-11,22-diazaheptacyclo[13.9.1.01,13.02,21.04,12.05,10.019,25]pentacosa-4(12),5(10),6,8,15(25),16,18-heptaen-9-ylcarboxamido]-(2R)-pentanoic acid]: the inhibitory constant (Ki) in experiment [1] stood at 0.16 nM; in experiment [2] it was 0.083 nM.
As to `NCCC[C@@H](NC(=O)c1cccc2c3c([nH]c12)[C@@H]1Oc2c(O)ccc4c2C12CCN(CC1CC1)C(C4)[C@]2(O)C3)C(=O)O` (stereo partly drawn) [5-amino-2-[22-cyclopropylmethyl-2,16-dihydroxy-(2S,13R)-14-oxa-11,22-diazaheptacyclo[13.9.1.01,13.02,21.04,12.05,10.019,25]pentacosa-4(12),5(10),6,8,15(25),16,18-heptaen-9-ylcarboxamido]-(2R)-pentanoic acid], the inhibition constant Ki in experiment [1] was determined as 0.18 nM; in experiment [2], 0.015 nM.
With `NCCCC[C@@H](NC(=O)c1cccc2c3c([nH]c12)[C@@H]1Oc2c(O)ccc4c2C12CCN(CC1CC1)C(C4)[C@]2(O)C3)C(=O)O` (stereo partly drawn) [6-amino-2-[22-cyclopropylmethyl-2,16-dihydroxy-(2S,13R)-14-oxa-11,22-diazaheptacyclo[13.9.1.01,13.02,21.04,12.05,10.019,25]pentacosa-4(12),5(10),6,8,15(25),16,18-heptaen-9-ylcarboxamido]-(2R)-hexanoic acid], the Ki in experiment [1] was 0.3 nM; in experiment [2] it was 0.75 nM.
`O=C(O)c1cccc2c3c([nH]c12)[C@@H]1Oc2c(O)ccc4c2C12CCN(CC1CC1)C(C4)[C@]2(O)C3` (stereo partly drawn) [22-cyclopropylmethyl-2,16-dihydroxy-(2S,13R)-14-oxa-11,22-diazaheptacyclo[13.9.1.01,13.02,21.04,12.05,10.019,25]pentacosa-4(12),5(10),6,8,15(25),16,18-heptaene-9-carboxylic acid]: the Ki in experiment [1] was found to be 0.013 nM; in experiment [2], 0.016 nM.
`O=C(O)CNC(=O)c1cccc2c3c([nH]c12)[C@@H]1Oc2c(O)ccc4c2C12CCN(CC1CC1)C(C4)[C@]2(O)C3` (stereo partly drawn) [32+/-82-[22-cyclopropylmethyl-2,16-dihydroxy-(2S,13R)-14-oxa-11,22-diazaheptacyclo[13.9.1.01,13.02,21.04,12.05,10.019,25]pentacosa-4(12),5(10),6,8,15(25),16,18-heptaen-9-ylcarboxamido]acetic acid] registered a Ki in experiment [1] of 0.005 nM.
